Usually IC50 stands for the concentration that gives 50% inhibition.

Calls of active or inactive are those of the source.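 The calls were made as follows: active = IC50 at or below 10 micromolar; inactive = IC50 above 10 micromolar.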

The target of the assay is Steroidogenic factor 1 (Homo sapiens) (UniProt Q13285). Description: SF-1 inhibitor potency, dose response, cell-based, CHO-K1, Gal4-SF-1 LBD, luciferase luminescence (AID 600). The following applies: CHO-K1 Gal4-SF-1 LBD luciferase reporter. On the technique in general: A reporter such as luciferase makes a cellular process visible.
Steroidogenic factor 1 (Homo sapiens), sequence (Q13285 whole entry, looked up, the tested form may be a part): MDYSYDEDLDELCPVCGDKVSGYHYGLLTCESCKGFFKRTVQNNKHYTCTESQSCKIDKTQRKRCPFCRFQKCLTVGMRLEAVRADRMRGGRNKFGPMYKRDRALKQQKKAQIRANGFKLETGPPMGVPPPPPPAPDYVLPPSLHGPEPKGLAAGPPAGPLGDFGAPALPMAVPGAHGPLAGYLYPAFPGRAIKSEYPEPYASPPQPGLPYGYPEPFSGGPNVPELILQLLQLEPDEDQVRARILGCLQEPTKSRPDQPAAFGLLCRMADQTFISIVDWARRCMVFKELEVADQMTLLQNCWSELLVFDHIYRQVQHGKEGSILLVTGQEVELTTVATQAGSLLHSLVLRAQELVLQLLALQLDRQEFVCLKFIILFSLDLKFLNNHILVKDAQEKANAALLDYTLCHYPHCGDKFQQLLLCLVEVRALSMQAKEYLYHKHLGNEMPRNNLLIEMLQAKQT
As for `Cc1ccc(C(=O)/C=C/Nc2ccccn2)cc1`, the IC50 is > 11 µM (inactive).

As to `N#CC1=C(N)C(C#N)(C#N)[C@H](c2ccncc2)[C@H]2CN(C(=O)OCc3ccccc3)CC=C12`, the IC50 entry was “inactive”. The result for `CSC1=C(C#N)C(c2ccc(Cl)cc2)C2=C(CC(C)(C)CC2=O)N1` (stereo not drawn) reads “inactive”. The result for `O=C(/C=C\Nc1ccc2c(c1)OCO2)c1ccccn1` reads “inactive”. The result for `COC(=O)C1=C(CN2CCCc3ccccc32)NC(=O)NC1c1ccc(F)cc1` (stereo not drawn) reads 5.34 µM; that for `CCN(CC)c1ccc2c(c1)OC(N)=C(C#N)C2c1cccnc1` (stereo not drawn), > 3.67 µM (inactive). As for `CN(C)c1ccc(N/C=C/C(=O)c2ccccc2)cc1`, the IC50 is > 11 µM (inactive).

Turning to `CC(=O)CC1OC(=O)C(Br)=C1NCc1ccccc1` (stereo not drawn), the IC50 was > 11 µM (inactive).

Regarding `COc1cc(/C=N/O)ccc1OCc1ccc(C(=O)O)cc1`, the 50% inhibitory concentration (IC50) is 1.16 µM.

For the compound `CN(C)c1ccc2c(c1)OC(N)=C(C#N)C2c1cccc(F)c1` (stereo not drawn), the IC50 entry was “inactive”.

For `COC(=O)c1ccc(N2C(=O)CC(N3CCC(n4c(=O)[nH]c5ccccc54)CC3)C2=O)cc1` (stereo not drawn), the IC50 was > 99 µM (inactive). To `COc1cc(C2C(C#N)=C(N)Oc3cc(N(C)C)ccc32)cc2c1OCO2` (stereo not drawn) belongs > 3.67 µM (inactive); to `O=S(=O)(c1ccc2c(c1)C(=NO)c1cc(S(=O)(=O)N3CCCCC3)ccc1-2)N1CCCCC1`, 1.51 µM; to `COc1cc(C2C(C#N)=C(N)Oc3cc(N)ccc32)cc(OC)c1OC` (stereo not drawn), 7.92 µM. The result for `CCOc1ccccc1-n1c(SCC(=O)Nc2ccc(CC)cc2)nc2n[nH]c(C)c2c1=N` reads 5.99 µM. To `O=C(/C=C\Nc1ccccn1)c1ccc(Cl)cc1` belongs 6.09 µM; to `CCOC(=O)C1=C(Cn2cnc3ccccc32)NC(=O)NC1c1cc(C)ccc1C` (stereo not drawn), “inactive”; to `O=C(/C=C\Nc1cccc(F)c1)c1ccc2c(c1)OCO2`, 4.65 µM.

For the origin of these results see PubChem BioAssay AID600 (The Scripps Research Institute Molecular Screening Center, 2007).
